Experimental data reported in patent US7820379B2, “Process for high throughput screening of CpG-based immuno-agonist/antagonist” (Coley Pharmaceutical GmbH, priority 2000, dated 2010).

What follows are substances tested against T1, human TLR9 (Homo sapiens, UniProt Q9NR96, H530R/Q688R) (assay: NF-κB-luciferase activation in 293 cells transfected with human TLR9 (293-hTLR9-luc)). Settings: 293 cells transiently transfected with hTLR9 and NF-κB-luc; 8 h; ODN 2 μM, LPS 100 ng/ml.
T1 construct: expressed in transfected cells
T1 sequence (Q9NR96 26-1032 H530R/Q688R): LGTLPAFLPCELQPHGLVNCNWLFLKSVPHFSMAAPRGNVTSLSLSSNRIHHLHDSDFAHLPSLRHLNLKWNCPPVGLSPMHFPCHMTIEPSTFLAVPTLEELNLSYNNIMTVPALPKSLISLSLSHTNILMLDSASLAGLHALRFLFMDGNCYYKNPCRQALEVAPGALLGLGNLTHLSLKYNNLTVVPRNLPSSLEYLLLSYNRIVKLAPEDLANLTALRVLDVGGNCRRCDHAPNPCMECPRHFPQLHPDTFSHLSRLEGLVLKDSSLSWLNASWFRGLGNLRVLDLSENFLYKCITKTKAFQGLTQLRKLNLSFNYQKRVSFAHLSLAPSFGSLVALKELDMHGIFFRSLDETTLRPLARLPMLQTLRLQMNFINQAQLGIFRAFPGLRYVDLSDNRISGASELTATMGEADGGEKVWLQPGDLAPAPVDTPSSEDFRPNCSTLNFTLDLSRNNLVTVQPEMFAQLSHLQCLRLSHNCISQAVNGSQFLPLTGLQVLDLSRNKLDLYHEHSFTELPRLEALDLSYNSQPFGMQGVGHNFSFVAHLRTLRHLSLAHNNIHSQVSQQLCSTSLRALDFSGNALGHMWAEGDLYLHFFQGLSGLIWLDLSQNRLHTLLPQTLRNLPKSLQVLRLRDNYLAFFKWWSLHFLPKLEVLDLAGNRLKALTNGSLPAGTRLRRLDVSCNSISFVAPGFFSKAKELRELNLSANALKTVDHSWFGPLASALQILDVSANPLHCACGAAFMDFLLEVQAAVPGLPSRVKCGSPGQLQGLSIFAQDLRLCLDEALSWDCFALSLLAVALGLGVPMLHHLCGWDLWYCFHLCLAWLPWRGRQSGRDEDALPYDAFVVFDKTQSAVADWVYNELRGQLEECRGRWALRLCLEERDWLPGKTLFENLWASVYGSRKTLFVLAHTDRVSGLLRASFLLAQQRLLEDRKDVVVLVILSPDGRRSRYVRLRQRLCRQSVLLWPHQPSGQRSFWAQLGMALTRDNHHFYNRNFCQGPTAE
Format: cell-based
Description: Since NF-κB activation is central to the IL-1/TLR signal transduction pathway (Medzhitov R et al., Mol Cell 2:253-258 (1998); Muzio M et al., J Exp Med 187:2097-2101 (1998)), cells were transfected with hTLR9 or co-transfected with hTLR9 and a NF-κB-driven luciferase reporter construct. Human fibroblast 293 cells were transiently transfected with (FIG. 1A) hTLR9 and a six-times NF-κB-luciferase reporter plasmid (NF-κB-luc, kindly provided by Patrick Baeuerle, Munich, Germany) or (FIG. 1B) with hTLR9 alone. After stimulus with CpG-ODN (2006, 2 μM, […], SEQ ID NO:112), GpC-ODN (2006-GC, 2 μM, […], SEQ ID NO:118), LPS (100 ng/ml) or media, NF-κB activation by luciferase readout (8 h, FIG. 1A) or IL-8 production by ELISA (48 h, FIG. 1B) were monitored. Results are representative of three independent experiments.
To generate stable clones expressing human TLR9, murine TLR9, or either TLR9 with the NF-κB-luc reporter plasmid, 293 cells were transfected in 10 cm plates (2×10^6 cells/plate) with 16 μg of DNA and selected with 0.7 mg/ml G418 (PAA Laboratories GmbH, Cölbe, Germany). The clones were also screened for IL-8 production or NF-κB-luciferase activity after stimulation with ODN. Four different types of clones were generated. • 293-hTLR9-luc: expressing human TLR9 and 6-fold NF-κB-luciferase reporter • 293-mTLR9-luc: expressing murine TLR9 and 6-fold NF-κB-luciferase reporter • 293-hTLR9: expressing human TLR9 • 293-mTLR9: expressing murine TLR9 […]
Because stable TLR9 transfectants mirrored primary cell responsiveness to CpG-DNA (FIGS. 4 and 5), it was hypothesized that stable transfectants could potentially discern species-specific CpG-motifs through TLR9 receptors. Therefore 293-hTLR9-luc (expressing human TLR9 and 6-fold NF-κB-luc reporter), 293-mTLR9-luc (expressing murine TLR9 and 6-fold NF-κB-luc reporter), 293-hTLR9 (expressing human TLR9) and 293-mTLR9 (expressing murine TLR9) clones were tested for CpG-DNA motif responsiveness. […] Depicted are both NF-κB-driven luciferase and IL-8 production as readout. […] After lysis of the cells luciferase can be detected photometrically based on an enzymatic reaction by luciferase which creates photons. IL-8 production was monitored using enzyme-linked immunosorbent assay (ELISA). FIG. 11 depicts clones stimulated with ODN 2006 (filled circle), ODN 2006-GC (open circle), ODN 1668 (filled triangle) or ODN 1668-GC (open triangle) at indicated concentrations and NF-κB activation or IL-8 production were measured after 10 and 48 hours, respectively. Results shown in FIG. 11 are representative of three independent experiments. Strikingly, CpG-motif sequence specificity was conferred in a species-specific manner by TLR9. Additionally, the half-maximal concentration for either 2006 or 1668 appears nearly the same as those determined on primary cells (compare FIG. 10 and FIG. 11).
Although 2006 and 1668 are discussed in terms of CpG-motif differences, they are very different in several aspects (see Table 5 for comparison). The lengths are different, 24 versus 20 nucleotides, and 2006 has four CG dinucleotides compared to one in 1668. Additional differences are the CG position relative to the 5′ and 3′ ends and also 5′ sequence differences. In order to determine if motif specificity is a quality of the motif and not the global sequence environment, for this experiment several sequences were produced holding these variables constant. As a starting point, the 1668 sequence was modified by converting the central C to T and the distal TG to CG, thereby creating a second CG in the resulting sequence 5000 (SEQ ID NO:130, Table 5). Then point nucleotide changes were made, progressing toward a 2006-like sequence, 5007 (SEQ ID NO:98). The ODN 5002 (SEQ ID NO:132) is most like 1668 with the exception that C's at positions 12 and 19 have been converted to T's. […]

Substance	NF-κB activation by luciferase readout
TCGTCGTTTTGTCGTTTTGTCGTT [ODN 2006]	responded
lipopolysaccharide [LPS]	not

Same assay, conditions: CpG-ODN 2006 compared with CpG-ODN 1668

human TLR9 signaling response	Substance
significantly stronger	TCGTCGTTTTGTCGTTTTGTCGTT [ODN 2006]

Same assay, conditions: ODN concentration of half-maximal activation; 293-hTLR9-luc cells, NF-κB-driven luciferase readout, 12 hours; read-out: 293-hTLR9 Kac

Substance	EC50
TCCATGACGTTCCTGATGCT (listed as DNA, chemistry not fully specified) [ODN 1668]	> 10 µM
TCCATGACGTTCTTGACGCT (listed as DNA, chemistry not fully specified) [ODN 5000]	10 µM
TCCATGACGTTCTTGACGTT (listed as DNA, chemistry not fully specified) [ODN 5001]	7 µM
TCCATGAGCTTCCTGATGCT (listed as DNA, chemistry not fully specified) [ODN 1668-GC]	> 10 µM
TCCATGTCGTTCTTGATGTT (listed as DNA, chemistry not fully specified) [ODN 5004]	5 µM
TCCATGTCGTTTTTGATGTT (listed as DNA, chemistry not fully specified) [ODN 5005]	3 µM
TCCATGTCGTTTTTGTCGTT (listed as DNA, chemistry not fully specified) [ODN 5007]	0.7 µM
TCCATGTCGTTTTTGTTGTT (listed as DNA, chemistry not fully specified) [ODN 5006]	3 µM
TCGTCGTTTTGTCGTTTTGTCGTT [ODN 2006]	0.4 µM
TGCTGCTTTTGTGCTTTTGTGCTT (listed as DNA, chemistry not fully specified) [ODN 2006-GC]	> 10 µM
